The record followed here is US20250145610A1, “CRYSTALLINE FORM OF ISAVUCONAZONIUM SULFATE AND A PROCESS FOR ITS PREPARATION” (Glenmark Life Sciences Limited, priority 2022, published 2025).

Counter-ions that a name gives are not always drawn.

This series in a line: Stability study of crystalline vs amorphous isavuconazonium sulfate: impurity content by HPLC after storage. The class given is physicochemical. Particulars: for Impurity Compound IV content / Impurity Compound IX content / Impurity Compound VI content / Impurity Compound VII content / Impurity Compound VIII content / Impurity Compound X content: HPLC; for Storage stability (in words): 3 months at −20° C. and 2° to 8° C. As to the method: High performance liquid chromatography (HPLC) was performed with the conditions described below for detecting chemical purity:
Column: Xterra MS C18, 150×4.6 mm, 3.5μ; Column Temperature: 45° C., Mobile phase: Mobile Phase A; 0.1% Perchloric acid in water: Mobile Phase B=Methanol
Diluent: Methanol: 0.3% Sodium bisulphate (70:30 v/v); Flow Rate: 1.0 mL/Minutes, Detection: 260 nm; Injection Volume: 20 μL.
Comparative stability data was generated for crystalline isavuconazonium sulfate (Form GL-1) and the amorphous form of isavuconazonium sulfate (prepared as described in Comparative Example 1) stored at a temperature of −20° C. and from 2° to 8° C. for three (3) months (i.e., 12 weeks). In particular, the crystalline isavuconazonium sulfate (Form GL-1) obtained as per Example 3 and the amorphous form of isavuconazonium sulfate of Comparative Example 1 were taken in an appropriate amount, and packed in a transparent polyethylene bag. The bag was sealed under vacuum and then enclosed in a black LDPE (Low-density polyethylene) bag which in turn is kept in triple laminated aluminium pouches sealed at three sides. The fourth side of the bag is then sealed under vacuum and kept in a HDPE (High-density polyethylene) container, and stored at −20° C. and from 2° to 8° C. for 3 months (i.e., 12 weeks). Both materials were analyzed after 3 months of storage by the HPLC method described above.

Setting [1] is: 3 Month at 2°-8° C., monosulfate salt.
Where [2] appears, read: 3 Month at −20° C., monosulfate salt.

With `CNCC(=O)OCc1cccnc1N(C)C(=O)OC(C)n1cn[n+](C[C@](O)(c2cc(F)ccc2F)[C@@H](C)c2nc(-c3ccc(C#N)cc3)cs2)c1` (stereo partly drawn) [Amorphous isavuconazonium sulfate prepared as per comparativ] [(2-{[(1-{1-[(2R,3R)-3-[4-(4-cyanophenyl)-1,3-thiazol-2-yl]-2-(2,5-difluorophenyl)-2-hydroxybutyl]-1H-1,2,4-triazol-4-ium-4-yl}ethoxy)carbonyl](methyl)amino}pyridin-3-yl)methyl-N-methylglycinate monosulfate salt, reference compound], under setting [1], the “Impurity Compound IV content” value is 0.76%, the “Impurity Compound IX content” value is recorded as 2.5%, the “Impurity Compound VI content” value was found to be 0.33% and the “Impurity Compound VII content” value was 0.12%. For the same molecule, under setting [1], the “Impurity Compound VIII content” value worked out at 0.44% and the “Impurity Compound X content” value was 0.04%. Besides, under setting [2], the “Impurity Compound IV content” value is 0.41%, the “Impurity Compound IX content” value is reported as 1.26%, the “Impurity Compound VI content” value is recorded as 0.10% and the “Impurity Compound VII content” value is recorded as 0.12%. Under setting [2], the “Impurity Compound VIII content” value was found to be 0.44% and the “Impurity Compound X content” value is on record as 0.03%. Moreover, under “Initial, monosulfate salt”, the “Impurity Compound IV content” value was found to be 0.21%, the “Impurity Compound IX content” value was 0.51%, the “Impurity Compound VI content” value stood at 0.04% and the “Impurity Compound VII content” value turned out to be 0.12%. Further, under “Initial, monosulfate salt”, the “Impurity Compound VIII content” value amounted to 0.44% and the “Impurity Compound X content” value was found to be 0.03%. Also, the “Stability of the solid form (in words)” value (generates impurities of formulae IV, VI, VII, VIII, IX, X and XI) was “unstable”.
For `CNCC(=O)OCc1cccnc1N(C)C(=O)OC(C)n1cn[n+](C[C@](O)(c2cc(F)ccc2F)[C@@H](C)c2nc(-c3ccc(C#N)cc3)cs2)c1` (stereo partly drawn) [Crystalline isavuconazonium sulfate (Form GL-1) of Example 3] [(2-{[(1-{1-[(2R,3R)-3-[4-(4-cyanophenyl)-1,3-thiazol-2-yl]-2-(2,5-difluorophenyl)-2-hydroxybutyl]-1H-1,2,4-triazol-4-ium-4-yl}ethoxy)carbonyl](methyl)amino}pyridin-3-yl)methyl-N-methylglycinate monosulfate salt], under setting [1], the “Impurity Compound IV content” value worked out at 0.07%, the “Impurity Compound IX content” value amounted to 0.13%, the “Impurity Compound VI content” value is 0.03% and the “Impurity Compound VII content” value is listed as 0.08%. Further, under setting [1], the “Impurity Compound VIII content” value is recorded as 0.02% and the “Impurity Compound X content” value is recorded as 0.07%. Further, under setting [2], the “Impurity Compound IV content” value was found to be 0.05%, the “Impurity Compound IX content” value is 0.09%, the “Impurity Compound VI content” value is given as 0.02% and the “Impurity Compound VII content” value came to 0.08%. Besides, under setting [2], the “Impurity Compound VIII content” value was determined as 0.03% and the “Impurity Compound X content” value was found to be 0.08%. Moreover, the “Storage stability (in words)” value (listed as Form GL-1, monosulfate salt) is recorded as “more stable compared to the amorphous form of isavuconazonium sulfate”. Further, the “Storage stability (in words)” value (listed as crystalline isavuconazonium sulfate (Form GL-1), monosulfate salt) was “stable at 3 months”. Moreover, under “Initial, monosulfate salt”, the “Impurity Compound IV content” value stood at 0.03%, the “Impurity Compound IX content” value was found to be 0.09%, the “Impurity Compound VI content” value turned out to be 0.01% and the “Impurity Compound VII content” value is 0.08%. Moreover, for the setting “Initial, monosulfate salt”, the “Impurity Compound VIII content” value stood at 0.03% and the “Impurity Compound X content” value worked out at 0.05%. Also, under “stored at −20° C. and 2° to 8° C., sealed under vacuum”, the “Period over which stability is maintained” value is on record as ≥ 3 months.
